pIC50: −log10 of the molar value.
Assays:
[1] = molecular target: ErbB2 with Exon 20 YVMA insertion (HER2-YVMA) (Homo sapiens (Human), UniProt P04626, INS775YVMA); assay: Cellular phosphorylation assay, constitutive ErbB2 phosphorylation (Y1196) in engineered NIH 3T3 cells, Assay 4; type: cell-based
Outline: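 In-cell Western in NIH 3T3 cells carrying ErbB2 exon 20 YVMA insertion, with no ligand stimulation. One hour compound exposure at 37 °C before fixation and anti-pY1196 plus GAPDH staining with dual-wavelength fluorescence. IC50 derived after GAPDH normalization.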

MDR1 (P-gp) = MDR1 (P-gp) (Homo sapiens (Human), UniProt P08183); assay: MDR1 transfected MDCKII canine Mdr1 knockout permeability/efflux, Assay 7; conditions: dog, MDCK-MDR1
[2] = molecular target: ErbB2 insYVMA (HER2-YVMA, SEQ ID NO: 2) (Homo sapiens, UniProt P04626, INS775YVMA/P1170A); assay: biochemical; conditions: ErbB2 insYVMA enzyme assay; read-out: Assay 1 IC50
EGFR wild type (EGFR WT) = EGFR wild type (EGFR WT) (Homo sapiens (Human), UniProt P00533); assay: Cellular phosphorylation assay, EGF-stimulated EGFR phosphorylation in engineered NIH 3T3 cells, Phospho-EGFR DuoSet IC ELISA, Assay 5; type: cell-based
Chain of EGFR wild type (EGFR WT) (P00533 25-1210): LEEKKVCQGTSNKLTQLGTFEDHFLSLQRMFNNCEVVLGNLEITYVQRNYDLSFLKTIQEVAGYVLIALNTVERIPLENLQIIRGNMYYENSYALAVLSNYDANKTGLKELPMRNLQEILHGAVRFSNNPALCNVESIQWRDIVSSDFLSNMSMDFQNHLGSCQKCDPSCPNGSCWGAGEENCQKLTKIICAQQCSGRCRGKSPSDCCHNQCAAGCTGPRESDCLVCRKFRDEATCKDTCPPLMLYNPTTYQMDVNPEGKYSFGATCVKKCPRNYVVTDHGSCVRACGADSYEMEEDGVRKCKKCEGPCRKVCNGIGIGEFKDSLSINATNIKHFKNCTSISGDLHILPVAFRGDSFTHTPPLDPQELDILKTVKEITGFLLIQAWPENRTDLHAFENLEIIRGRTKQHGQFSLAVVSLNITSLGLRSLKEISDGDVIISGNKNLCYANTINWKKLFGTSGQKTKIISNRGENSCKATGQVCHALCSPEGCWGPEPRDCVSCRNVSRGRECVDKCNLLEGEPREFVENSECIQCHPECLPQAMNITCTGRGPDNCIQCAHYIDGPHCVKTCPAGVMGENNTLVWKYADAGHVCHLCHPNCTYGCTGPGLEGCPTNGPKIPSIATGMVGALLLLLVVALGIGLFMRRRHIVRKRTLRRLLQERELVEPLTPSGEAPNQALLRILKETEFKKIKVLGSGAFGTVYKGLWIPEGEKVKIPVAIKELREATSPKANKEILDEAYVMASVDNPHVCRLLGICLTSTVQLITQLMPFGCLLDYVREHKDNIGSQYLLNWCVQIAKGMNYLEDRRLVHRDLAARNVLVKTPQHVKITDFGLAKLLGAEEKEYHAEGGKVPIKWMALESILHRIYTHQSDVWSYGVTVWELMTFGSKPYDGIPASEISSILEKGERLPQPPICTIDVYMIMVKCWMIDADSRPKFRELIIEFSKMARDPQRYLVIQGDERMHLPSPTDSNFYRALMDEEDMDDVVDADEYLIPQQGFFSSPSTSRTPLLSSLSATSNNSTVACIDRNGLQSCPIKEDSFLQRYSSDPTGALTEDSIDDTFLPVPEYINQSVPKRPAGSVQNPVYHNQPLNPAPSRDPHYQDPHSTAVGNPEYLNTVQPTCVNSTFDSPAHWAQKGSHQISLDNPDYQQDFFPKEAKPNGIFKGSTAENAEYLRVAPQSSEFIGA
Outline: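 Phospho-EGFR ELISA on lysates of engineered NIH 3T3 EGFR WT cells, IC50 derived from concentration curves. Cells plated at 20,000/well overnight, given compound dilutions 1 h at 37 °C, then rEGF 100 ng/ml for a further 10 min before lysis.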

ErbB2 WT = ErbB2 WT (Homo sapiens (Human), UniProt P04626); assay: ErbB enzyme assay (CisBio HTRF KinEASE-TK), Assay 2; type: biochemical
Outline: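 Readout is HTRF KinEASE-TK, using Sa-XL665 and cryptate antibody for 1 h at 22 °C, as percent of control between DMSO-only (100) and pre-quenched (0) reactions. The kinase reaction runs 30 min at 22 °C with 1 mM ATP and 250 nM biotinylated TK substrate, in HEPES pH 7.4 with MgCl2 and 2% DMSO.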

BCRP = BCRP (Homo sapiens (Human), UniProt Q9UNQ0); assay: BCRP transfected MDCKII canine Mdr1 knockout permeability/efflux, Assay 9; conditions: dog
Chain of BCRP (Q9UNQ0 whole entry): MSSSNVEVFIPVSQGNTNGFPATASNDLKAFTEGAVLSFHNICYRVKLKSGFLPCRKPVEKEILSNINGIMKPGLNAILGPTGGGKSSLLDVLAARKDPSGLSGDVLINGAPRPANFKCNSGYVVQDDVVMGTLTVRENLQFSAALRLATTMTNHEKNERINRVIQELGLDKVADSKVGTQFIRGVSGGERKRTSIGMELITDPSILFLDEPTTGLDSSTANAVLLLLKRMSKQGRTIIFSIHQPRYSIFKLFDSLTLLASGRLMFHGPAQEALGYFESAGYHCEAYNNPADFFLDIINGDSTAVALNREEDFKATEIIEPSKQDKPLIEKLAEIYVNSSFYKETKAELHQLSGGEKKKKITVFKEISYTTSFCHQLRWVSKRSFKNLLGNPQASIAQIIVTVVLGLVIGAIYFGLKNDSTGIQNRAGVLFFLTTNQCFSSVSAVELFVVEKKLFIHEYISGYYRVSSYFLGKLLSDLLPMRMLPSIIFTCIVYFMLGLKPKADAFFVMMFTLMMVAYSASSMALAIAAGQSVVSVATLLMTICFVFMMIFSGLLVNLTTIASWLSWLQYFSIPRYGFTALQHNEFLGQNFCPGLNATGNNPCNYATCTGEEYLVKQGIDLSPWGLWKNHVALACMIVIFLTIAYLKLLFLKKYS

EGFR = EGFR (Homo sapiens (Human), UniProt P00533); assay: ErbB enzyme assay (CisBio HTRF KinEASE-TK), Assay 3; type: biochemical
Chain of EGFR (P00533 25-1210): as the sequence (P00533 25-1210) above
Outline: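 Using a time-resolved FRET read-out, tyrosine phosphorylation of 250 nM biotin substrate at 1 mM ATP (pH 7.4, 10 mM MgCl2, 2% DMSO, 22 °C, 30 min) was quantified against DMSO and pre-quenched controls; IC50 taken at 50% of control.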

[3] = Assay 9 Pe Ratio, efflux ratio Papp(B-A)/Papp(A-B), BCRP transfected MDCKII canine Mdr1 knockout

Chain of ErbB2 with Exon 20 YVMA insertion (HER2-YVMA) (P04626 other isoform, or with tags, fused parts or gaps ins YVMA behind 775): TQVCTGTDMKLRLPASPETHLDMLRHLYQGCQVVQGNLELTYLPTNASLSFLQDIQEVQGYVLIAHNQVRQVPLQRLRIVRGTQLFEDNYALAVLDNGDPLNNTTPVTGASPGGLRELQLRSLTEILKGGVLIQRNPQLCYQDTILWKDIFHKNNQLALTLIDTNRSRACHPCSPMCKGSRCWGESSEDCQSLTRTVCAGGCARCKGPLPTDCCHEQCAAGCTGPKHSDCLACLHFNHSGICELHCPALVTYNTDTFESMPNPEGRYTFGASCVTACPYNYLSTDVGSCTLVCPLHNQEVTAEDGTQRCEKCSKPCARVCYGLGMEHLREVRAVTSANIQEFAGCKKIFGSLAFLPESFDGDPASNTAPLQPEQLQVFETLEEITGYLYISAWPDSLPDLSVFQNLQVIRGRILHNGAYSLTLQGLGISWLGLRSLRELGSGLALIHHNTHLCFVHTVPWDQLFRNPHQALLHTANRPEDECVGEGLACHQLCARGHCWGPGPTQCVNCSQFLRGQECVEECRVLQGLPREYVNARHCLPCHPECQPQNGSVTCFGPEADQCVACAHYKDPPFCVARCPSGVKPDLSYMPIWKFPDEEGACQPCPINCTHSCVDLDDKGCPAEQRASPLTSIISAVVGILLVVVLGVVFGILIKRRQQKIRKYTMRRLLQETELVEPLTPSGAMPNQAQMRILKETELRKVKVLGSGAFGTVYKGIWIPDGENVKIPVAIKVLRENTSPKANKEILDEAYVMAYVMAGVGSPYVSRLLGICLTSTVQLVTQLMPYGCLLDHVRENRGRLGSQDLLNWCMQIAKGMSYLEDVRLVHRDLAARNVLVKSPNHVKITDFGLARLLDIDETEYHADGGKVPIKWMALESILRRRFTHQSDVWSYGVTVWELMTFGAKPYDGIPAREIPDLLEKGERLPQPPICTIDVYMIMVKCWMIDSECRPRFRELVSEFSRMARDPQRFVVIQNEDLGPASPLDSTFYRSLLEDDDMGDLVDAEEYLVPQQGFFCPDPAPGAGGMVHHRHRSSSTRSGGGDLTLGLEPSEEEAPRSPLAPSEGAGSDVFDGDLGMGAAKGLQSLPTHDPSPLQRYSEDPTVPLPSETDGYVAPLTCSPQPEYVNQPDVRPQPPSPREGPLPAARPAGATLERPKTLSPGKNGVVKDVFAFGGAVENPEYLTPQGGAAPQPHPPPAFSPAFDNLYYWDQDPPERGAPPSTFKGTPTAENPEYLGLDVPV

Compound | pIC50 [1] | efflux ratio at 2 h, 1 μM (MDR1 (P-gp)) | pIC50 [2] | pIC50 (EGFR wild type (EGFR WT)) | pIC50 (ErbB2 WT) | efflux ratio at 2 h, 1 μM (BCRP; [3]) | pIC50 (EGFR) | efflux ratio at 2 h, 1 μM (BCRP)
Cc1cc(Nc2ncnc3cnc(N4CC[C@@H](C#N)C4)nc23)ccc1Oc1ccc2c(c1)ncn2C [Example 184, (R)-1-(8-((3-methyl-4-((1-methyl-1H-benzo[d]imidazol-5-yl)oxy)phenyl)amino)pyrimido[5,4-d]pyrimidin-2-yl)pyrrolidine-3-carbonitrile] | 7.69 | 1.8 | 7.93 | ≤ 5.30 | 7.42 | 4.2 | ≤ 5.00 | 
Cc1cc(Nc2ncnc3cnc(N4C[C@@H](O)C(F)(F)C4)nc23)ccc1Oc1ccc2c(c1)ncn2C [Example 185, (R)-4,4-difluoro-1-(8-((3-methyl-4-((1-methyl-1H-benzo[d]imidazol-5-yl)oxy)phenyl)amino)pyrimido[5,4-d]pyrimidin-2-yl)pyrrolidin-3-ol] | 7.60 | 2 | 7.61 | ≤ 5.30 | 7.92 | 31.7 | ≤ 5.00 | 
Cc1cc(Nc2ncnc3cnc(N(C)[C@H]4C[C@H](O)C4)nc23)ccc1Oc1ccc2c(c1)ncn2C [Example 186, (1r,3r)-3-(methyl(8-((3-methyl-4-((1-methyl-1H-benzo[d]imidazol-5-yl)oxy)phenyl)amino)pyrimido[5,4-d]pyrimidin-2-yl)amino)cyclobutan-1-ol] | 8.39 | 1.4 | 8.24 | ≤ 5.30 | 8.43 | 24.2 | 6.23 | 
Cc1cc(Nc2ncnc3cnc(N4CCN5CCOC[C@@H]5C4)nc23)ccc1Oc1ccc2c(c1)ncn2C [Example 190, (S)-6-(hexahydropyrazino[2,1-c][1,4]oxazin-8(1H)-yl)-N-(3-methyl-4-((1-methyl-1H-benzo[d]imidazol-5-yl)oxy)phenyl)pyrimido[5,4-d]pyrimidin-4-amine] | 7.85 | 1.3 | 7.67 | ≤ 5.30 | 7.46 | 4.7 | 5.09 | 
Cc1cc(Nc2ncnc3cnc(N(C)[C@@H]4CCC[C@H]4O)nc23)ccc1Oc1ccc2c(c1)ncn2C [Example 193, (1R,2R)-2-(methyl(8-((3-methyl-4-((1-methyl-1H-benzo[d]imidazol-5-yl)oxy)phenyl)amino)pyrimido[5,4-d]pyrimidin-2-yl)amino)cyclopentan-1-ol] | 7.34 | 1.6 | 7.67 | ≤ 5.30 | 7.51 | 7 | 5.34 | 
CO[C@@H]1CN(c2ncc3ncnc(Nc4ccc(Oc5ccc6c(c5)ncn6C)c(C)c4)c3n2)C[C@@H]1O [Example 194, (3S,4R)-4-methoxy-1-(8-((3-methyl-4-((1-methyl-1H-benzo[d]imidazol-5-yl)oxy)phenyl)amino)pyrimido[5,4-d]pyrimidin-2-yl)pyrrolidin-3-ol] | 7.35 | 1.9 | 7.75 | ≤ 5.30 | 7.63 | 32.4 | 5.06 | 
Cc1cc(Nc2ncnc3cnc(N4CCC[C@@](C)(O)C4)nc23)ccc1Oc1ccc2c(c1)ncn2C [Example 196, (R)-3-methyl-1-(8-((3-methyl-4-((1-methyl-1H-benzo[d]imidazol-5-yl)oxy)phenyl)amino)pyrimido[5,4-d]pyrimidin-2-yl)piperidin-3-ol] | 8.06 | 1.6 | 8.09 | ≤ 5.30 | 8.04 | 13.2 | 6.05 | 
CO[C@H]1CN(c2ncc3ncnc(Nc4ccc(Oc5ccc6c(c5)ncn6C)c(C)c4)c3n2)C[C@H]1O [Example 197, (3R,4S)-4-methoxy-1-(8-((3-methyl-4-((1-methyl-1H-benzo[d]imidazol-5-yl)oxy)phenyl)amino)pyrimido[5,4-d]pyrimidin-2-yl)pyrrolidin-3-ol] | 7.35 | 1.8 | 7.85 | ≤ 5.30 | 7.68 | 35.7 | 5.06 | 
Cc1cc(Nc2ncnc3cnc(N4C[C@H](O)C(F)(F)C4)nc23)c(F)cc1Oc1ccc2c(c1)ncn2C [Example 202, (S)-4,4-difluoro-1-(8-((2-fluoro-5-methyl-4-((1-methyl-1H-benzo[d]imidazol-5-yl)oxy)phenyl)amino)pyrimido[5,4-d]pyrimidin-2-yl)pyrrolidin-3-ol] | 7.31 | 1.2 | 7.59 | ≤ 5.30 | 7.51 | 6.4 | ≤ 5.00 | 
Cc1cc(Nc2ncnc3cnc(N4CC5(C4)CC(O)(C(F)F)C5)nc23)ccc1Oc1ccc2c(c1)ncn2C [Example 210, 6-(difluoromethyl)-2-(8-((3-methyl-4-((1-methyl-1H-benzo[d]imidazol-5-yl)oxy)phenyl)amino)pyrimido[5,4-d]pyrimidin-2-yl)-2-azaspiro[3.3]heptan-6-ol] | 7.57 | 1.7 | 7.39 | ≤ 5.30 | 7.52 |  | ≤ 5.00 | 36.8
Cc1cc(Nc2ncnc3cnc(N4C[C@@H](O)C5(CC5)C4)nc23)ccc1Oc1ccc2c(c1)ncn2C [Example 211, (S)-5-(8-((3-methyl-4-((1-methyl-1H-benzo[d]imidazol-5-yl)oxy)phenyl)amino)pyrimido[5,4-d]pyrimidin-2-yl)-5-azaspiro[2.4]heptan-7-ol] | 7.83 | 3.3 | 7.96 | ≤ 5.30 | 7.51 |  | 5.50 | 25.2
Cc1cc(Nc2ncnc3cnc(N4C[C@H](O)C5(CC5)C4)nc23)ccc1Oc1ccc2c(c1)ncn2C [Example 212, (R)-5-(8-((3-methyl-4-((1-methyl-1H-benzo[d]imidazol-5-yl)oxy)phenyl)amino)pyrimido[5,4-d]pyrimidin-2-yl)-5-azaspiro[2.4]heptan-7-ol] | 7.99 | 2.8 | 7.89 | ≤ 5.30 | 7.64 |  | 5.62 | 31.4
Cc1cc(Nc2ncnc3cnc(N4CC[C@@](C)(O)C4)nc23)c(F)cc1Oc1ccc2c(c1)ncn2C [Example 214, (R)-1-(8-((2-fluoro-5-methyl-4-((1-methyl-1H-benzo[d]imidazol-5-yl)oxy)phenyl)amino)pyrimido[5,4-d]pyrimidin-2-yl)-3-methylpyrrolidin-3-ol] | 7.55 | 1.5 | 7.81 | ≤ 5.30 | 7.33 | 8.8 | ≤ 5.00 | 
Cc1cc(Nc2ncnc3cnc(N4CCC[C@@](C)(O)C4)nc23)c(F)cc1Oc1ccc2c(c1)ncn2C [Example 218, (R)-1-(8-((2-fluoro-5-methyl-4-((1-methyl-1H-benzo[d]imidazol-5-yl)oxy)phenyl)amino)pyrimido[5,4-d]pyrimidin-2-yl)-3-methylpiperidin-3-ol] | 7.36 | 1.5 | 7.38 | ≤ 5.30 | 7.39 | 2.4 | ≤ 5.00 | 
Cc1cc(Nc2ncnc3cnc(N4CCO[C@H](C)C4)nc23)ccc1Oc1ccc2c(c1)ncn2C [Example 265] | 7.77 | 1.1 | 7.33 | ≤ 5.30 | 7.34 | 1.8 | 5.27 | 
Cc1cc(Nc2ncnc3cnc(N4CCC(F)(F)C4)nc23)ccc1Oc1ccc2c(c1)ncn2C [Example 299] | 7.52 | 0.4 | 7.30 | ≤ 5.30 | 6.84 | 1.2 | ≤ 5.00 | 
Cc1c(Oc2ccn3ncnc3c2)ccc(Nc2ncnc3cnc(N4CCC(C)(O)CC4)nc23)c1F [Example 304] | 6.94 | 1.2 | 7.93 | ≤ 5.30 | 7.31 | 7.3 | 5.55 | 

Source: patent US11834453B2, “Substituted pyrimido[5,4-d]pyrimidines as HER2 inhibitors” (Array BioPharma Inc., priority 2020, dated 2023)
